Where a name gives a salt, the structure may show the parent alone. Where only a bound is given, the exact number is not on record here.

A word on the IC50: it is the concentration at which inhibition is half-maximal.

One assay concerns HCT-116. Put plainly: Cytotoxicity against human HCT-116 cells assessed as reduction in cell viability by SRB assay. It counts as functional, cell-based. Background: Sulforhodamine B stains cellular protein and so reports cell mass.
In another assay the test system is Bel-7402. As to the kind of experiment: Cytotoxicity against human Bel-7402 cells assessed as reduction in cell viability by SRB assay. In kind it is functional, cell-based.
Another assay relates to SH-SY5Y. As to the kind of experiment: Cytotoxicity against human SH-SY5Y cells assessed as reduction in cell viability by SRB assay. In kind it is functional, cell-based.
For another assay, the system named is PC-3. As to the kind of experiment: Cytotoxicity against human PC-3 cells assessed as reduction in cell viability by SRB assay. It counts as functional, cell-based.
For another assay, the system named is HL-60. As to the kind of experiment: Cytotoxicity against human HL-60 cells assessed as reduction in cell viability by MTT assay. It counts as functional, cell-based. (In general: Tetrazolium dyes change colour on reduction, which living cells bring about.)
Another assay has as its system ASPC1. As to the kind of experiment: Cytotoxicity against human ASPC1 cells assessed as reduction in cell viability by SRB assay. In kind it is functional, cell-based.
A further assay has as its system U-87 MG. As to the kind of experiment: Cytotoxicity against human U87 cells assessed as reduction in cell viability by SRB assay. It counts as functional, cell-based, U-87MG ATCC.
A further assay relates to K562. As to the kind of experiment: Cytotoxicity against human K562 cells assessed as reduction in cell viability by MTT assay. In kind it is functional, cell-based.

Turning to `CN[C@H]1CC[C@H](c2ccc3c(c2O)C(=O)c2cc(SC)c4cc(C)cc(O)c4c2C3=O)O[C@H]1C`, the half-maximal inhibitory concentration (IC50) in the assay on HCT-116 was greater than 10 µM; in the assay with Bel-7402, greater than 10 µM; in the assay on SH-SY5Y, greater than 10 µM; with PC-3, greater than 10 µM; with HL-60, 7.6 µM; in the assay on ASPC1, greater than 10 µM. The IC50 in the assay with U-87 MG and in the assay on K562 was greater than 10 µM throughout.

With `CSc1cc2c(c3c1C[C@@](C)(O)CC3=O)C(=O)c1ccc([C@H]3CC[C@H](N(C)C)[C@H](C)O3)c(O)c1C2=O`, the IC50 in the assay with HCT-116 stood at 10 µM; in the assay on Bel-7402, 10 µM; in the assay with SH-SY5Y, 4.3 µM; in the assay on PC-3, 7.7 µM; in the assay on HL-60, 3.5 µM; in the assay on ASPC1, 7.1 µM. Besides, the IC50 was found to be 7.9 µM with U-87 MG and 7.1 µM with K562.

With `COc1cccc2c1C(=O)c1c(O)c3c(c(O)c1C2=O)C[C@@](O)(C(=O)CO)C[C@@H]3O[C@H]1C[C@H](N)[C@H](O)[C@H](C)O1` [DOXORUBICIN HYDROCHLORIDE], the IC50 turned out to be 0.3 µM in the assay on Bel-7402; 0.5 µM in the assay with SH-SY5Y; 0.2 µM in the assay with PC-3; 0.2 µM in the assay on ASPC1; 0.2 µM in the assay on U-87 MG.
